Laboratory results reported in patent publication KR20230003036A, “렌바티닙 메실레이트의 결정형 xi 및 이의 제조방법” (청두 이스턴 바이오파마슈티컬 컴퍼니 리미티드, priority 2020, dated 2021).

Experiments:
[1] = Powder flowability experiment (tap density, compression coefficient); type: physicochemical
[2] = Impurity stability under storage conditions (HPLC purity after 30 days); type: physicochemical; conditions: high temperature 60℃, high humidity 92.5%, high humidity 75% and light irradiation, sample of Example 11
[3] = Dissolution experiment of crystalline form XI capsules (paddle method, pH 4.0 medium); type: physicochemical; conditions: capsules of form XI (Example 12), 900ml, 37℃, 75r/min, UV 250nm
in vivo = conditions: rat, po, 1.25 mg/kg
[4] = Crystal form stability under storage conditions (XRD, day 0 vs day 30); type: physicochemical; conditions: storage conditions of Table 3 (high temperature 60℃, high humidity 92.5%, high humidity 75%, light irradiation), sample of Example 11
[5] = Hygroscopicity experiment of crystalline form XI (DVS, dynamic vapour sorption); type: physicochemical; conditions: 25℃, sample of Example 1

SMILES | compression coefficient (comparison) ([1]; compression coefficient (%) = 100% (tap density - bulk density)/tap density, form C (made according to CN100569753C) vs form XI (Example 12)) | flowability (comparison) ([1]; form XI (Example 12) vs form C (made according to CN100569753C)) | change of purity (HPLC) [2] | time at which dissolution is basically complete [3] [min] | AUC(0-t) at 24 h (in vivo) [ng·h/mL] | Cmax (in vivo) [ng/mL] | Tmax (in vivo) [h] | change of crystal form (XRD pattern) [4] | weight loss ([5]; relative humidity 0~40%) [%] | weight gain by moisture absorption ([5]; relative humidity 40~80%) [%]
COc1cc2nccc(Oc3ccc(NC(=O)NC4CC4)c(Cl)c3)c2cc1C(N)=O [결정형 C, 렌바티닙 메실레이트] | 결정형 XI의 압축 계수보다 훨씬 더 높으며 | – | – | – | – | – | – | – | – | –
COc1cc2nccc(Oc3ccc(NC(=O)NC4CC4)c(Cl)c3)c2cc1C(N)=O [결정형 XI, 렌바티닙 메실레이트, 메실레이트 이수화물] | – | 결정형 C의 유동성보다 훨씬 우수하며 | 큰 변화가 없었다 | ~120 | 22900 ± 2840 | 2290 ± 216 | 4 ± 1.73 | 결정형 변화가 없었다 | ~0.33 | ~0.25
